The subject of one data set is SKBR-3. Put plainly: Cytotoxic activity, sulforhodamine B assay, SKBR-3. As to conditions: Homo sapiens, SK-BR-3, SKBR-3 breast cancer cells, 72 h. Type of data set: cell-based. The protocol:
(§1) Media, serum and antibiotics for cell culture were from Lonza (Basel, Switzerland). MCF7 (ER+, PR+, HER2−), SKBR3 (ER−, […], HER2+) and MDA-MB231 (ER−, PR−, HER2−) human breast cancer cells; MCF10A non-cancer breast epithelial cells; LNCAP (androgen sensitive), DU145 and PC3 (androgen independent) human prostate cancer cells; and PNT1 non-cancer prostate epithelial cells were available in our laboratory. MCF7, SKBR3 and MDA-MB231 cells were cultured in DMEM, supplemented with 10% FBS, 2 mM glutamine, 100 units/mL penicillin and 100 units/mL streptomycin. MCF10A cells were cultured in MEBM and supplemented with 0.4% BPE, 0.1% hEGF, 0.1%, Insulin, 0.1% Hydrocortisone and 0.1% GA-1000. LNCAP and DU145 cells were cultured in RPMI and supplemented with 10% FBS, 2 mM glutamine, 100 units/mL penicillin and 100 units/mL streptomycin. PC3 and PNT1 cells were cultured in DMEM-F12 (1:1), supplemented with 10% FBS, 2 mM glutamine, 100 units/mL penicillin and 100 units/mL streptomycin. Cultures were maintained in a humidified atmosphere of 95% air and 5% CO2 at 37 °C. Treatment with compounds were carried out in culture conditions. For cell survival assay, cells were fixed with 50% trichloroacetic acid for at least 2 h at 4 °C, washed with distilled and de-ionized water, air-dried and stained for 30 min with 0.4% sulforhodamine B in 1% acetic acid. Unbound dye was removed, and 10 mM tris-HCl solution (pH 7.5) was added to dissolve the protein-bound dye. Cell survival was assessed by optical density determination at 510 nm using a microplate reader.
(§2) Figure 2 Effect of novel thiazolinylphenyl-piperazines (2a–c) on BCa cell viability. MCF7, SKBR3 and MDA cells were treated with rising concentrations (5 μM, 10 μM, 25 μM, 50 μM, 100 μM) of 2a–c. After 72 h, cell viability was assessed by sulforhodamine B assay. The results were reported as percentage of viable cells compared to positive control (untreated cells that were considered to represent the maximum viability of 100%). […]
Background: The SRB assay estimates cell density from bound dye.

Another data set relates to DU-145. In words: Cytotoxic activity, sulforhodamine B assay, DU-145. The conditions noted are these: Homo sapiens, DU-145 prostate cancer cells, 72 h. Type of data set: cell-based. The protocol: as §1
Figure 1 Effect of novel thiazolinylphenyl-piperazines (2a–c) on PCa cell viability. LNCAP, DU145 and PC3 cells were treated with rising concentrations (5 μM, 10 μM, 25 μM, 50 μM, 100 μM) of 2a–c. After 72 h, cell viability was assessed by sulforhodamine B assay. The results were reported as percentage of viable cells compared to positive control (untreated cells that were considered to represent the maximum viability of 100%). […]

A further data set deals with MCF-7. In words: Cytotoxic activity, sulforhodamine B assay, MCF-7. Type of data set: cell-based. The conditions noted are these: Homo sapiens, MCF7, MCF-7 breast cancer cells, 72 h. The protocol:
as §1, §2

The test system of a further data set is MDA-MB231. In words: Cytotoxic activity, sulforhodamine B assay, MDA-MB231. As to conditions: Homo sapiens, MDA-MB-231, MDA-MB231 breast cancer cells, 72 h. Type of data set: cell-based. The protocol:
as §1
(§3) Figure 2 Effect of novel thiazolinylphenyl-piperazines (2a–c) on BCa cell viability. MCF7, SKBR3 and MDA cells were treated with rising concentrations (5 μM, 10 μM, 25 μM, 50 μM, 100 μM) of 2a–c. After 72 h, cell viability was assessed by sulforhodamine B assay. The results were reported as percentage of viable cells compared to positive control (untreated cells that were considered to represent the maximum viability of 100%). Data represent the mean ± SD of at least three independent triplicate experiments. * denotes statistically significant values compared with positive control (* adjp < 0.05, ** adjp < 0.01, *** adjp < 0.001).
as §3, with “Figure 3” for “Figure 2”, “thiazolinylphenyl-piperazines (3a–c)” for “thiazolinylphenyl-piperazines (2a–c)”, “on PC3 and MDA” for “on BCa”, “viability. Cells” for “viability. MCF7, SKBR3 and MDA cells”, “of 3a-c.” for “of 2a–c.”, “< 0.001, **** adjp < 0.0001).” for “< 0.001).”

In a further data set the test system is LNCAP. In words: Cytotoxic activity, sulforhodamine B assay, LNCAP. Type of data set: cell-based, human. As to conditions: 72 h, LNCAP prostate cancer cells. The protocol: as §1
as §3, with “Figure 1” for “Figure 2”, “on PCa” for “on BCa”, “viability. LNCAP, DU145” for “viability. MCF7, SKBR3”, “and PC3” for “and MDA”, “< 0.01).” for “< 0.01, *** adjp < 0.001).”

The target of a further data set is T1, 5-HT1A receptor (Rattus norvegicus, UniProt P19327).
T1 construct: supplemented with 0.1% ascorbate, 5 mM MgCl2 and 80 µg of hippocampal membrane suspension; from tissue; host or cells: rat hippocampus membranes (Sprague Dawley)
T1 sequence (P19327 1-422): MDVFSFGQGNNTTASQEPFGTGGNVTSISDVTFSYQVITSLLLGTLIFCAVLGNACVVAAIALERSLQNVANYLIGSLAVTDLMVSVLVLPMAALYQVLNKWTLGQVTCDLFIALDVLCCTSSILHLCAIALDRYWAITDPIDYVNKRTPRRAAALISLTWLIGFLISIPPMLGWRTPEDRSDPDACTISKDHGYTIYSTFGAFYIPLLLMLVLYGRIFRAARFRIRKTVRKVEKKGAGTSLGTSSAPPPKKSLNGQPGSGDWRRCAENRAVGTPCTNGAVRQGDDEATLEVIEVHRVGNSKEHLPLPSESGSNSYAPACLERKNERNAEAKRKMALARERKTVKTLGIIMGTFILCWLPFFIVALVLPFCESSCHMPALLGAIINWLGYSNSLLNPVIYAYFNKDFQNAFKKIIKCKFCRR
Put plainly: Competitive 5-HT1A binding assay, [3H]8-OH-DPAT, hippocampal membranes. More on the design: species or system Sprague Dawley rats. The conditions noted are these: 5-HT1A receptor binding affinity; 1 nM [3H]8-OH-DPAT, hippocampal membrane; Cheng–Prusoff; read-out: Ki (µM, 95% CI). The protocol: Brains were rapidly removed and placed on ice. Hippocampi (for 5-HT1A assays) and frontal cortices (for 5-HT2A assays) were dissected on a Petri dish. […] The homogenate was centrifuged at 48,000× g at 4 °C for 15 min. […] The centrifugation and suspension steps were repeated twice.
Non-specific binding was determined with 10 μM serotonin. The final DMSO concentration in the assay was 5%. […] Each well was washed with 2 mL of 50 mM Tris-HCl (pH 7.4) buffer to separate bound ligands from free ones. Plates were left to dry overnight. […] Binding curves were fitted with one site non-linear regression.

For another data set, the system named is PC-3. In words: Cytotoxic activity, sulforhodamine B assay, PC-3. Type of data set: cell-based. The conditions noted are these: Homo sapiens, PC-3 prostate cancer cells, 72 h. The protocol:
as §1
Figure 1 Effect of novel thiazolinylphenyl-piperazines (2a–c) on PCa cell viability. LNCAP, DU145 and PC3 cells were treated with rising concentrations (5 μM, 10 μM, 25 μM, 50 μM, 100 μM) of 2a–c. After 72 h, cell viability was assessed by sulforhodamine B assay. […]
Figure 3 Effect of novel thiazolinylphenyl-piperazines (3a–c) on PC3 and MDA cell viability. […] After 72 h, cell viability was assessed by sulforhodamine B assay. […]

“And” between values parts separate entries of the source, which are not always exact repeats. Identical values can stand only once.

The term IC50 denotes the midpoint of a concentration-inhibition curve. Low readings indicate higher potency, high ones lower potency. As usually defined, the Ki is the equilibrium dissociation constant of an inhibitor or competing ligand from its target. Take `c1ccc(N2CCNCC2)c(C2=NCCS2)c1` [2a, 2-(2-(Piperazin-1-yl)phenyl)-4,5-dihydrothiazole]: the IC50 in the data set with SKBR-3 was 28.2 ± 4.1 µM; with DU-145, 66.6 ± 7.3 µM; in the data set on MCF-7, 14.7 ± 1.9 µM; with MDA-MB231, 31.4 ± 5.1 µM; in the data set with LNCAP (Homo sapiens, LNCaP), 67.2 ± 13.1 µM. In addition, the Ki on 5-HT1A receptor was 2.29 µM and 2.3 µM.
Turning to `c1cc(C2=NCCS2)cc(N2CCNCC2)c1` [2b, 2-(3-(Piperazin-1-yl)phenyl)-4,5-dihydrothiazole], the IC50 in the data set with SKBR-3 was 27.6 ± 5.6 µM; in the data set with DU-145, 66.6 ± 9.4 µM; with MCF-7 it was 15.9 ± 1.8 µM; with MDA-MB231 it was 40 ± 9.8 µM; in the data set on LNCAP (Homo sapiens, LNCaP) it was 48.5 ± 7.3 µM. Moreover, the Ki on 5-HT1A receptor stood at 0.412 µM.
As to `c1cc(N2CCNCC2)ccc1C1=NCCS1` [2c, 2-(4-(Piperazin-1-yl)phenyl)-4,5-dihydrothiazole], the IC50 in the data set with SKBR-3 stood at 27.7 ± 4.8 µM; in the data set on DU-145 it was 47.7 ± 11.7 µM; with MCF-7 it was 19.5 ± 2.3 µM; with MDA-MB231, 36.3 ± 7.7 µM; with LNCAP (Homo sapiens, LNCaP), 32 µM; with LNCAP it was 31.9 ± 9.2 µM. In addition, the inhibition constant (Ki) at 5-HT1A receptor is 49.5 µM.
The melting point is the temperature of the solid-liquid transition. For the molecule `CC(=O)N1CCN(c2ccccc2C2=NCCS2)CC1` [3a, 1-(4-(2-(4,5-Dihydrothiazol-2-yl)phenyl)piperazin-1-yl)ethan-1-one], the melting point fell in the range of 90 to 92 °C. This molecule also showed an IC50 in the data set on PC-3 of 73.3 ± 10.3 µM. The molecule further displayed an IC50 in the data set on MDA-MB231 of 23.3 ± 3.4 µM.
With `CC(=O)N1CCN(c2cccc(C3=NCCS3)c2)CC1` [3b, 1-(4-(3-(4,5-Dihydrothiazol-2-yl)phenyl)piperazin-1-yl)ethan-1-one], the IC50 was 65 ± 7.4 µM in the data set on PC-3 and 34.6 ± 5.4 µM with MDA-MB231.
As to `CC(=O)N1CCN(c2ccc(C3=NCCS3)cc2)CC1` [3c, 1-(4-(4-(4,5-Dihydrothiazol-2-yl)phenyl)piperazin-1-yl)ethan-1-one], the values for the IC50 with PC-3 and in the data set with MDA-MB231 were 32.1 ± 10.2 µM and 47.1 ± 6.7 µM, respectively.

(Values after PMC10609883, “Design, Synthesis and Biological Evaluation of Novel N-Arylpiperazines Containing a 4,5-Dihydrothiazole Ring” (Pharmaceuticals, 2023).)
